Source: patent US20260373266A1, “PROTEIN DEGRADERS AND USES THEREOF” (KYMERA THERAPEUTICS, INC., priority 2022, published 2026)
Where two headings read alike, the source gives them in different places.

Target: T1, DCAF1 WD40 domain (residues 1077-1390) (Homo sapiens, UniProt Q9Y4B6)
T1 construct: DCAF1 WD40 domain (residues 1077-1390)
Assay: DCAF1 binding assay by SPR (Biacore 8K+), DCAF1-3 KD
Settings: 25 °C

T1 sequence (Q9Y4B6 1077-1390): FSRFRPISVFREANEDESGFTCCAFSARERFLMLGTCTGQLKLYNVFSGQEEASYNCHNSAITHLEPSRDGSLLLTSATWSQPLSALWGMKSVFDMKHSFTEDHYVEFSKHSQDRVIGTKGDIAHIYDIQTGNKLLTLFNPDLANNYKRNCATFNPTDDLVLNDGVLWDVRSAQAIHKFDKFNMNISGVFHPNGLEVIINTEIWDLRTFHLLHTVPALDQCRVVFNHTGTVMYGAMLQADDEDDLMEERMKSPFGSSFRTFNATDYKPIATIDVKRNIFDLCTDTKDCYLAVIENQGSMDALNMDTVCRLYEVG

SMILES | Kd (read-out: DCAF1-3 SPR (KD)) [µM] | Kd (DCAF1-3 SPR (KD)) [µM]
NC(=O)C[C@H](NC(=O)c1cn[nH]c1C(=O)c1ccccc1)c1cccc(Cl)c1 [I-619] | < 10 | 
CN1C[C@H](Nc2cc(N3CCOCC3)ccn2)CCC1CC(=O)Nc1cccc(Cl)c1 (stereo partly drawn) [I-145] | > 200 | 
Cc1sc2c(c1C)C(c1ccc(Cl)cc1)=N[C@@H](CC(=O)NCCOCCOCCOCCOCCOCC(=O)c1[nH]cc(C(=O)N[C@@H](CC(N)=O)c3cccc(Cl)c3)c1-c1ccccc1F)c1nnc(C)n1-2 [I-897] | < 10 | 
NC(=O)C[C@H](NC(=O)c1c[nH]nc1-c1ccccc1O)c1cccc(Cl)c1 [I-334] | 10 to 100 | 
Fc1cccc(N2CCCC(N(c3cc(N4CCOCC4)ccn3)C(F)(F)F)C2)c1 (stereo not drawn) [I-305] | > 200 | 
NC(=O)C[C@H](NC(=O)c1[nH]nc(CN2CCOCC2)c1-c1ccccc1F)c1cccc(Cl)c1 [I-178] | > 200 | 
CCCCN(c1nccc(N2CCOCC2)n1)[C@@H]1CCCN(c2cccc(F)c2)C1 [I-43] |  | > 200
CN1CCN(c2cc(N[C@@H]3CCCN(c4cccc(F)c4)C3)ncn2)CC1 [I-374] | > 200 | 
O=c1[nH]cc(C2CCOCC2)cc1N[C@@H]1CCCN(c2cccc(F)c2)C1 [I-646] | 10 to 100 | 
NC(=O)C[C@H](NC(=O)c1c[nH]nc1-c1ccccc1Cl)c1cccc(Cl)c1 [I-210] | > 200 | 
Fc1cccc(N[C@@H]2CCCN(c3cc(N4CCCCC4)ccn3)C2)c1 [I-645] | > 200 | 
c1ccc(Cn2cc(N3CCC[C@@H](Nc4cc(N5CCOCC5)ccn4)C3)cn2)cc1 [I-420] | > 200 | 
NC(=O)OCc1cc(F)cc(N2CCC[C@H]3[C@@H]2CCN3c2cc(N3CC4CC(C4)C3)ccn2)c1 [I-1035, 3-((3aS,7aS)-1-(4-(3-azabicyclo[3.1.1]heptan-3-yl)pyridin-2-yl)octahydro-4H-pyrrolo[3,2-b]pyridin-4-yl)-5-fluorobenzyl carbamate] |  | < 10
c1cnc2cc(N3CCC[C@@H](Nc4cc(N5CCOCC5)ncn4)C3)ccc2c1 [I-403] | > 200 | 
Oc1ccc(F)cc1N1CCC[C@H]2[C@@H]1CCN2c1cc(N2CCCCC2)ccn1 [I-813] | 10 to 100 | 
C[S@@+]([O-])c1ccc(N2CCC[C@@H](Nc3cc(N4CCOCC4)ccn3)C2)cc1 [I-864] | > 200 | 
Nc1ccc(N[C@@H]2CCCN(c3cccc(F)c3)C2)cc1C1CCCCC1 [I-930] | 10 to 100 | 
OCCCc1cccc(N2CCC[C@@H](Nc3cc(N4CCOCC4)ccn3)C2)c1 [I-862] | 10 to 100 | 
NC(=O)C[C@H](NC(=O)c1cn[nH]c1[C@H]1CCCOC1)c1cccc(Cl)c1 [I-345] | > 200 | 
Cc1ccccc1C(=O)c1[nH]cc(C(=O)N[C@@H](CC(N)=O)c2cccc(Cl)c2)c1-c1c(C)cccc1F [I-626] | < 10 | 
NC(=O)C[C@H](NC(=O)c1[nH]nc(Nc2ccccc2)c1-c1ccccc1F)c1cccc(Cl)c1 [I-169] | 10 to 100 | 
NC(=O)C[C@H](NC(=O)c1n[nH]nc1-c1ccccc1F)c1cccc(Cl)c1 [I-200] | > 200 | 
Clc1nc2c(c(N3CCC[C@@H](Nc4cc(N5CCOCC5)ccn4)C3)n1)CCNC2 [I-681] | 10 to 100 | 
Nc1cc(N[C@@H]2CCCN(c3cccc(F)c3)C2)cc(C2CCCCC2)c1 [I-970] | 10 to 100 | 
Fc1cccc(N2CCC[C@@H](Nc3cccc(N4CCOCC4)n3)C2)c1 [I-17] | 100 to 200 | 

SMILES | Kd (read-out: DCAF1-3 SPR (KD)) [µM] | Kd (DCAF1-3 SPR (KD)) [µM]
C[C@@H]1CC[C@H](O)CN1c1ccnc(N2CC[C@@H]3[C@H]2CCCN3c2cccc(F)c2)c1 [I-824] | < 10 | 
Oc1ccc(N2CCC[C@@H](Nc3cc(N4CCCCC4)ccn3)C2)cc1 [I-593] | < 10 | 
NCC(=O)N1CC2(CCCN(c3cccc(F)c3)C2)Nc2cc(N3CCCCC3)ncc21 (stereo not drawn) [I-1020] | 10 to 100 | 
Fc1cccc(N2CCC[C@H](Cc3cc(N4CCOCC4)ccn3)C2)c1 [I-98] | > 200 | 
NC(=O)C[C@H](NC(=O)c1cn[nH]c1-c1c(F)ccc(F)c1C(F)(F)F)c1cccc(Cl)c1 [I-793] | < 10 | 
c1cnc(N2CCC[C@@H](Nc3cc(N4CCOCC4)ccn3)C2)nc1 [I-69] | 100 to 200 | 
Cc1c(F)ccc(F)c1-c1[nH]ncc1C(=O)N[C@@H](c1cccc(Cl)c1)[C@H]1CCCS1(=O)=O [I-1000] | < 10 | 
Cc1sc2c(c1C)C(c1ccc(Cl)cc1)=N[C@@H](CC(=O)NCCOCCOCCOCCOCCOCCC1CCN(c3ccnc(N4CC[C@@H]5[C@H]4CCCN5c4cccc(F)c4)c3)CC1)c1nnc(C)n1-2 [I-891] | < 10 | 
COC(=O)c1ccc(F)c(-c2n[nH]cc2C(=O)N[C@@H](CC(N)=O)c2cccc(Cl)c2)c1 [I-270] | > 200 | 
CC(=O)N1CCN(c2ccnc(N3CC[C@@H]4[C@H]3CCCN4c3cccc(F)c3)c2)CC1 [I-948] | 10 to 100 | 
c1cc2c(N3CCC[C@@H](Nc4cc(N5CCOCC5)ccn4)C3)nccc2cn1 [I-66] | 100 to 200 | 
COCCc1[nH]cc(C(=O)N[C@@H](CC(N)=O)c2cccc(Cl)c2)c1-c1ccccc1F [I-362] | > 200 | 
c1cc(N2CCOCC2)cc(N[C@@H]2CCCN(c3ccc(CN4CCOCC4)cn3)C2)n1 [I-786] | 10 to 100 | 
CN(CCN)C(=O)C[C@H](NC(=O)c1cn[nH]c1-c1ccccc1F)c1cccc(Cl)c1 [I-807] | < 10 | 
OCCc1ccc(N2CCC[C@@H](Nc3cc(N4CCOCC4)ccn3)C2)nc1 [I-691] | 10 to 100 | 
NC(=O)C[C@H](NC(=O)c1c[nH]nc1-c1cc(-c2nnn[nH]2)ccc1F)c1cccc(Cl)c1 [I-293] | > 200 | 
Fc1cccc(N2CCCC(N3CCc4c(N5CC6CC(C6)C5)ccnc43)C2)c1 (stereo not drawn) [I-790] | < 10 | 
NC(=O)CCc1cccc(N2CCC[C@H]3[C@@H]2CCN3c2cc(N3CCCCC3)ccn2)c1 [I-881] | < 10 | 
NC(=O)C[C@H](NC(=O)c1cn[nH]c1-c1cnsc1)c1cccc(Cl)c1 [I-158] | 10 to 100 | 
NCCOCCOCCOCCOCCOCC(=O)c1[nH]cc(C(=O)N[C@@H](CC(N)=O)c2cccc(Cl)c2)c1-c1ccccc1F [I-675] | < 10 | 
O=C1COc2cc(N3CCC[C@@H](Nc4cc(N5CCOCC5)ccn4)C3)cnc2N1 [I-431] | < 10 | 
C[C@H]1CCCCN1c1ccnc(N2CC[C@H]3[C@@H]2CCCN3c2cccc(F)c2)c1 [I-644] | 10 to 100 | 
Cc1c(F)ccc(F)c1-c1[nH]ncc1C(=O)N[C@H](c1cccc(Cl)c1)[C@H]1CCOC1 [I-968] | 10 to 100 | 
Cc1nc(N2CCC[C@@H](Nc3cc(N4CCOCC4)ccn3)C2)nc2ccccc12 [I-415] | 10 to 100 | 
Cc1n[nH]cc1C(=O)N[C@@H](CC(N)=O)c1cccc(Cl)c1 [I-107] | > 200 | 

SMILES | Kd (read-out: DCAF1-3 SPR (KD)) [µM] | Kd (DCAF1-3 SPR (KD)) [µM]
NC(=O)[C@@H]1[C@H](Nc2cc(N3CCOCC3)ccn2)CCCN1c1cccc(F)c1 [I-278] | > 200 | 
Fc1cccc(N2CCC[C@@H](Nc3cc(C4CCOCC4)[nH]n3)C2)c1 [I-608] | > 200 | 
c1ccc(N2CCC[C@@H](Nc3cc(N4CCOCC4)ncn3)C2)nc1 [I-11] | > 200 | 
Fc1cccc(N2CCC[C@@H]3[C@H]2CCCN3c2cc(N3CCCCC3)ccn2)c1 [I-703] | > 200 | 
c1ccc(Oc2cncc(N3CCC[C@@H](Nc4cc(N5CCOCC5)ccn4)C3)c2)cc1 [I-436] | 10 to 100 | 
Fc1cccc(N2CCC[C@@H](Nc3cc(N4CC5CCCC5C4)ccn3)C2)c1 (stereo partly drawn) [I-575] | < 10 | 
Nc1ccc(N2CCC[C@H]3[C@@H]2CCN3c2cc(N3CC4CC(C4)C3)ccn2)cc1F [I-734] | 10 to 100 | 
NC(=O)C[C@H](NC(=O)c1cn[nH]c1C1=CCOCC1)c1cccc(Cl)c1 [I-496] | 10 to 100 | 
COCCN(C)CC1CCN(c2ccnc(N3CC[C@@H]4[C@H]3CCCN4c3cccc(F)c3)c2)CC1 [I-922] | 10 to 100 | 
O=C(O)C1(c2cccc(N3CCC[C@@H](Nc4cc(N5CCOCC5)ccn4)C3)c2)CCCC1 [I-697] | 10 to 100 | 
NC(=O)C[C@H](NC(=O)c1c[nH]nc1-c1cc(F)ccc1F)c1cccc(Cl)c1 [I-513] | < 10 | 
Fc1cccc(N2CCC[C@@H](Nc3cncc(N4CCOCC4)c3)C2)c1 [I-19] | 10 to 100 | 
CCCCN1CCN(c2cc(N[C@@H]3CCCN(c4cccc(F)c4)C3)ncn2)CC1 [I-377] | > 200 | 
Fc1cccc(N2CCCC(Nc3nccc(N4CCNCC4)n3)C2)c1 (stereo not drawn) [I-23] | > 200 | 
Fc1cccc(N2CCC[C@@H](N3CCCc4c(N5CCCCC5)ccnc43)C2)c1 [I-808] | > 200 | 
N#Cc1ccccc1-c1[nH]ncc1C(=O)N[C@@H](CC(N)=O)c1cccc(Cl)c1 [I-338] | < 10 | 
Cc1ncc(N2CCOCC2)cc1N[C@@H]1CCCN(c2cccc(F)c2)C1 [I-527] | > 200 | 
CC(=O)Nc1cccnc1N1CCC[C@@H](Nc2cc(N3CCOCC3)ccn2)C1 [I-430] | > 200 | 
Fc1cccc(N2CCC[C@@H](N(CC(F)F)c3cc(N4CCOCC4)ccn3)C2)c1 [I-257] | > 200 | 
Fc1cccc(N2CCC[C@H](Nc3nccc(N4CCOCC4)n3)C2)c1 [I-119] | 100 to 200 | 
C[C@H](NC(=O)c1c[nH]nc1-c1ccccc1F)c1cccc(Cl)c1 [I-106] | 10 to 100 | 
C[C@H]1CC[C@@H](Nc2cc(N3CCOCC3)ncn2)CN1c1cccc(F)c1 [I-234] | > 200 | 
O=C1Cc2cc(N3CCC[C@@H](Nc4cc(N5CCOCC5)ccn4)C3)ncc2N1 [I-425] | > 200 | 
CN1CC=CC[C@@H]1CC(=O)N[C@@H](CC(N)=O)c1cccc(Cl)c1 [I-442] | > 200 | 
O[C@@H](c1cccc(N2CCC[C@@H](Nc3cc(N4CCOCC4)ccn3)C2)c1)C(F)(F)F [I-772] | 10 to 100 | 
